{
  "source": "patent US20120142750A1",
  "about": "“INDOLEAMINE 2,3-DIOXYGENASE PATHWAYS IN THE GENERATION OF REGULATORY T CELLS” (Regents of the University of Minnesota, priority 2005, published 2012)",
  "key": {"CHOP in Tregs": {"tested_on": "CHOP in Tregs", "test": "Intracellular CHOP expression in Tregs and OT-I cells cultured with TDLN pDCs", "type": "cell-based, mouse", "conditions": "48 hours; with OVA antigen; no bystander cells", "source_text": "Flow cytometry. Details of the staining protocols are given below. For CHOP and Foxp3 staining, assays were set up without the A1 bystander cells, so that the Tregs were the only CD4^+ cells in the system and thus could be unambiguously followed throughout the assay.\nFAGS staining. Antibodies were from BD-Pharmingen unless otherwise noted. Anti-mouse CD25-APC conjugate (clone PC61, cat. #17-0251-81) was from eBioscience: This conjugate gave brighter signal and better separation of CD25^+ cells than other conjugates from other suppliers. For intracellular staining of CHOP, live cells were first blocked for 10 minutes with mouse Fc Block (BD Pharmingen) in 10% fetal calf serum medium, stained with anti-CD4-FITC for 30 minutes on ice, washed with PBS, then fixed and permeablized for 20 minutes in 250 ul Cytoperm/Cytofix solution (BD Pharmingen) on ice. All subsequent staining and wash steps were in BD Permwash solution. Fixed cells were stained with 1:100 dilution of monoclonal anti-gadd153/CHOP (sc-7351, Santa Cruz Biotechnology), washed, and stained with secondary monoclonal rat anti-mouse-IgG1-PE (#550083, BD Biosciences). […] For CHOP staining, assays were set up without A1 bystander cells, so that Tregs were the only CD4^+ cells, and thus could be unambiguously followed throughout the assay. […]"}, "[1]": {"tested_on": "Tregs from draining lymph nodes", "test": "Adoptive transfer of TDLN DCs and ex-vivo Treg assay", "type": "in vivo, mouse", "conditions": "sustained-release pellets; Tregs isolated after four days", "source_text": "Adoptive transfer and ex-vivo Treg assay. The adoptive transfer model has been previously described (Munn et al., Immunit), 2005; 22:633-642; and Munn et al., J. Clin. Invest. 2004a; 114; 280-290). Briefly, DCs were sorted from TDLNs (total CD11c^+ cells), pulsed with […] (SEQ ID NO:1) peptide, and 5×10^4 DCs injected into anteriomedial thigh. For studies measuring ex vivo Treg suppressor activity, the recipient mice were pre-loaded with 5×10^6 sorted CD8^+ T-I cells. After four days, the inguinal LNs draining the site of DC injection were removed, and the CD4^+CD25^+ Tregs were isolated by FACS sorting. A titration of Tregs was added to readout assays, comprising CD4^+ A1 cells, CBA DCs, feeder layer, and H—Y peptide, all as described above. For CFSE proliferation studies, CD8^+ OT-I (wild-type or GCN2-KO background) were sorted, labeled with CFSE, and 5×10^6 cells injected intravenously into wild-type or GCN2-KO recipients. OVA-pulsed DCs from TDLNs were injected as above, and the inguinal (draining) LNs harvested after four days. LN cells were analyzed by FACS for CD8 vs 1B11 vs CFSE."}, "[2]": {"tested_on": "primed CD4+ T cells / naive CD4+ T cells", "test": "MLR assays of function of CpG-PDC or CpG-B cell primed CD4+ T cells", "type": "cell-based, human", "method": "In vitro priming of naive CD4+ T cells. CD4+CD45RA+ naive T cells were primed with allogeneic PDCs or irradiated B cells (30 Gy) at a 10:1 ratio (e.g., 2×10^6 naive CD4+ T cells plus 2×105 PDCs per well in 24-well plates) with ODN 2216 or ODN 2006 present in RPMI 1640 medium supplemented with 10% human AB serum. 1 MT and/or KYN were added into CpG ODN-PDC or CpG ODN-B cell mediated naive CD4+ T cell priming cultures as indicated. In some experiments, blocking Abs against CD80, CD86, HLA-DR or the control IgG Ab (R&D Systems, Minneapolis, Minn.) were added to CpG-PDC-mediated naive CD4+ T cell priming cultures at a final Ab concentration ranging from 0.1 to 10 μg/ml. After 7 days, primed T cells in cultures were harvested, assessed for their surface phenotype, intracellular Foxp3 expression, and their function in MLR assays.\nMLR assays. […] In all T cell proliferation assays, plates were incubated at 37° C. for 5 days and pulsed with 1 μCi of 3H-thymidine per well for the last 18 hours before harvesting. All determinations were carried out in triplicate and 3H-thymidine incorporation was determined."}, "OT-I and A1 T cells": {"tested_on": "OT-I and A1 T cells", "test": "Bystander-suppression assays (TDLN IDO+ DCs, OT-I, Tregs, A1 bystander cells)", "type": "cell-based, mouse", "method": "Isolation of tumor-draining lymph node DCs.\nBystander-suppression assays. All experiments were repeated 3-5 times unless otherwise indicated. OT-I cells were sorted as CD8^+ spleen cells, gated on the CD11c^NEGB220^NEG fraction to exclude DCs. Sorted DCs from TDLN were mixed with 1×10^5 responder cells at a 1:40 ratio in V-bottom culture wells (Nunc). […] Sorted CD4^+ A1 cells (1×10^5) and CD11c^+ DCs (1:40 ratio) from normal CBA spleen were added as bystander cells. […] For transwell assays, 96-Multiwell insert plates (1 uM pore size, BD Falcon) were used and the number of cells in all groups was doubled.\nFeeder layer. Plasmacytoid DCs and Tregs have been reported to require survival factors to maintain viability and function in vitro.\nReadouts for T cell proliferation. […] After 72 hours, assays were stained for CD4 vs CD8 and CFSE fluorescence analyzed gated on CD4^+ (A1) and CD8^+ (OT-I) populations.\nAnti-CD3 proliferation and preactivation assays. […] For pre-activation studies, 2×10^4 Tregs were cultured with 1×10^5T-depleted spleen cells plus 0.1 ug/ml αCD3 antibody and 200 U/ml IL-2 (R&D Systems) for 48 hours."}},
  "note": "Entries after “also recorded” stand apart in the source; their conditions may differ.",
  "data": [
    {"smiles": "Cn1cc(C[C@@H](N)C(=O)O)c2ccccc21", "note": "[Inhibitor 1MT, 1-methyl-D-tryptophan]", "values": [
      {"measurement": "CHOP induction in Tregs (and OT-I)", "setting": "CHOP in Tregs", "result": "abrogated"},
      {"measurement": "ex vivo suppressor activity of Tregs from recipient mice given IDO+ DCs", "setting": "[1]", "result": "did not develop ex vivo suppressor activity"},
      {"measurement": "T cell responses after priming with CpG ODN-activated B cells (control for nonspecific effects)", "setting": "[2]; 1MT added to priming MLRs with IDO-negative B cells", "result": "no nonspecific effect"},
      {"measurement": "anergy/hyporesponsiveness of primed CD4+ T cells to subsequent alloantigen stimulation", "setting": "[2]; 1MT present during priming", "result": "prevented CD4+ T cells from becoming anergic/hyporesponsive"},
      {"measurement": "suppressor/regulatory activity of PDC-primed T cells on proliferation of naive CD4+ T cells in MLR", "setting": "[2]; 1MT present during priming", "result": "blocked the generation of suppressor/regulatory activity; also recorded: markedly reduced"},
      {"measurement": "Treg-mediated suppression of bystander cells when IDO blocked", "setting": "OT-I and A1 T cells; 200 uM 1MT, without αCD3 mitogen", "result": "no suppression; also recorded: no spontaneous suppressor activity"},
      {"measurement": "αCD3-induced suppression in transwell experiments", "setting": "OT-I and A1 T cells; 10-fold more Tregs, αCD3 mitogen added", "result": "not blocked"},
      {"measurement": "suppression of bystander cells by Tregs in transwell chambers", "setting": "OT-I and A1 T cells; transwell, Tregs with IDO+ DCs in lower chamber", "result": "abrogated"}
    ]}
  ]
}
